The target in data set [1] is T1, D4 dopamine receptor (Homo sapiens, UniProt P21917).
T1 sequence (P21917 1-419): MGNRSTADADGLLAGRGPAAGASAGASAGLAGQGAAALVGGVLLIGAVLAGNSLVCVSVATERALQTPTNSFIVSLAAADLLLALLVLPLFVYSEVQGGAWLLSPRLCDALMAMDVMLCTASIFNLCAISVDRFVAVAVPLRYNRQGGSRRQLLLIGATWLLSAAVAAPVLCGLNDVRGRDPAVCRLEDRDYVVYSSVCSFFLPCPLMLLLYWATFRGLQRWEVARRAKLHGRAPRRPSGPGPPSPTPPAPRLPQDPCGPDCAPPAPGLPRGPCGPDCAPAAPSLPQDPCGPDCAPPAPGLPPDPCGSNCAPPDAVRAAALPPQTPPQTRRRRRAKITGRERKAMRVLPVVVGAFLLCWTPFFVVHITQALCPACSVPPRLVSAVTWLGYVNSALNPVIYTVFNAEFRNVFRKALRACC
To be noted: cited from earlier work.

Data set [2] concerns the target 5-HT2C receptor (Rattus norvegicus, UniProt P08909). To be noted: cited from earlier work.
Data set [3] addresses 5-HT6 receptor (Rattus norvegicus, UniProt P31388). The conditions noted are these: cited from earlier work.
Data set [4] has as its target T2, D4 dopamine receptor (Rattus norvegicus, UniProt P30729).
T2 sequence (P30729 1-387): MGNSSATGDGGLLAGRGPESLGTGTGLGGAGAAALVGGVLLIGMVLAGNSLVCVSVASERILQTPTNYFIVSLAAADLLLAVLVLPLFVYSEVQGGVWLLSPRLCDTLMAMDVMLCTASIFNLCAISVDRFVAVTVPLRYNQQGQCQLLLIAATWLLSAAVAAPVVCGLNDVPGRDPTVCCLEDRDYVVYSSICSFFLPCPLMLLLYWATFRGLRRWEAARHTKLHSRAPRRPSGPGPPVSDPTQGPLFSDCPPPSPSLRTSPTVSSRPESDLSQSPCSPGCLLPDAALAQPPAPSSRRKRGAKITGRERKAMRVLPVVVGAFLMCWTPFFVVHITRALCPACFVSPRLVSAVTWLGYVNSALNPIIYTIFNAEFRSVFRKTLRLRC
The conditions noted are these: cited from earlier work.

Data set [5] deals with T3, 5-HT2C receptor (Homo sapiens, UniProt P28335).
T3 sequence (P28335 33-458): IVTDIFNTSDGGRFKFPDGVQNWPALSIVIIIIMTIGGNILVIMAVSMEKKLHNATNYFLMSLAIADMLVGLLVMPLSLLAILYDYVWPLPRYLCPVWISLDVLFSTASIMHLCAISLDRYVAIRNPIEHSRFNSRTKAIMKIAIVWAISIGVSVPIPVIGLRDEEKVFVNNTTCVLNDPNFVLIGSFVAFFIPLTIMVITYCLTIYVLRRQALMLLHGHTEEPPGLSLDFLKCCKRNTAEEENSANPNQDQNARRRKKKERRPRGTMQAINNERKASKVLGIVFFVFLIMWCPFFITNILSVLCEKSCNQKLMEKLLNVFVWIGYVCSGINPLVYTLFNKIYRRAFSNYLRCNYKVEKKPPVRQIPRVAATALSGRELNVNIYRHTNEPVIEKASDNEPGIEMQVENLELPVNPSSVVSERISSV
The conditions noted are these: active metabolite in man; U.S. Pat. No. 6,093,747; cited from earlier work.

The target of data set [6] is 5-HT2A receptor (Homo sapiens, UniProt P28223). To be noted: Table 3; expressed as pKi or pKd values; known affinities; cited from earlier work.
The test system of data set [7] is 5-HT2C receptor relative to 5-HT2A and D2 receptors. The data set is described as follows: Relative 5-HT2C affinity (formula I, sum of 5-HT2C/5-HT2A and 5-HT2C/D2 affinity ratios). The conditions noted are these: for (2C/2A) + (2C/D2): Table 2, sum of affinity ratios from data of Table 1.
Data set [8] deals with D2 receptor (Homo sapiens, UniProt P14416). The conditions noted are these: Table 3; expressed as pKi or pKd values; known affinities; cited from earlier work.
For data set [9], the target named is T4, M4 muscarinic acetylcholine receptor (Homo sapiens, UniProt P08173).
T4 sequence (P08173 1-479): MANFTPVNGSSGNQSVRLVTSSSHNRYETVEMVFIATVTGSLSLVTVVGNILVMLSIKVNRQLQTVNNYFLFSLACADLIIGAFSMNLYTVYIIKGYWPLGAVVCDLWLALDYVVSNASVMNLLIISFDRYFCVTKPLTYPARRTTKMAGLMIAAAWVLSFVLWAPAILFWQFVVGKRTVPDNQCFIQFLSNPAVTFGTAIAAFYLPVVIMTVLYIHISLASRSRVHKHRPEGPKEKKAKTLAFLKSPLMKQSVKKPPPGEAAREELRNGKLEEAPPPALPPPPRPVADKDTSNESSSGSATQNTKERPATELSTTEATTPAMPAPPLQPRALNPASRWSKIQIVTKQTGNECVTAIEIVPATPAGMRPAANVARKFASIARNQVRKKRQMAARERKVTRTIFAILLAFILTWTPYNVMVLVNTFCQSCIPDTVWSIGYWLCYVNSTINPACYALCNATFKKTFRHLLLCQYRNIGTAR
The conditions noted are these: expressed as KD; cited from earlier work.

Data set [10] has as its target T5, M5 muscarinic acetylcholine receptor (Homo sapiens, UniProt P08912).
T5 sequence (P08912 1-532): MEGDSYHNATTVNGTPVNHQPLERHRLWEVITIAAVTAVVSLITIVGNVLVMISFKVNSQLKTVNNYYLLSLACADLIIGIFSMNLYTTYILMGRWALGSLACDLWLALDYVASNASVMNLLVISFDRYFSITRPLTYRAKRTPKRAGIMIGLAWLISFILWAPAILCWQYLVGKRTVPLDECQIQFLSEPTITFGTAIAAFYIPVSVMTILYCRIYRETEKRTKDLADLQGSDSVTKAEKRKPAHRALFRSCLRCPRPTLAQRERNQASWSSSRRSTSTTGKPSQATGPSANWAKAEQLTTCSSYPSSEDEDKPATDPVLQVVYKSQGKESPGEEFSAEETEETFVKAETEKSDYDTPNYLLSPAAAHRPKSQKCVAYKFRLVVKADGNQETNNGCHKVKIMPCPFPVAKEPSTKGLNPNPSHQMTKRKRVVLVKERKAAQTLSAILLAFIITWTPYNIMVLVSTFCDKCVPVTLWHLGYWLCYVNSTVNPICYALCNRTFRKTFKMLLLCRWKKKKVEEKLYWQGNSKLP
To be noted: expressed as KD; cited from earlier work.

Data set [11] has as its target M1 muscarinic acetylcholine receptor (Homo sapiens, UniProt P11229). The conditions noted are these: expressed as KD; cited from earlier work.
Data set [12] concerns the target 5-HT7 receptor (Rattus norvegicus, UniProt P32305). The conditions noted are these: cited from earlier work.
The subject of data set [13] is 5-HT2C/D2. The data set is described as follows: 5-HT2C/D2 receptor affinity ratio. The class given is binding, human. The conditions noted are these: Table 2; affinity ratio from data of Table 1.
Data set [14] deals with M2 muscarinic acetylcholine receptor (Homo sapiens, UniProt P08172). To be noted: expressed as KD; cited from earlier work.
The subject of data set [15] is 5-HT2A/D2. The data set is described as follows: 5-HT2A/D2 receptor affinity ratio. The conditions noted are these: Table 2; affinity ratio from data of Table 1. The class given is binding, human.
The target of data set [16] is D1 dopamine receptor (Rattus norvegicus, UniProt P18901). To be noted: cited from earlier work.
In data set [17] the target is M3 muscarinic acetylcholine receptor (Homo sapiens, UniProt P20309). To be noted: expressed as KD; cited from earlier work.
In data set [18] the test system is 5-HT2C/5-HT2A. The data set is described as follows: 5-HT2C/5-HT2A receptor affinity ratio. It counts as binding, human. The conditions noted are these: Table 2; affinity ratio from data of Table 1.
For data set [19], the system named is H1/D2. As to the kind of experiment: H1/D2 receptor affinity ratio. It counts as binding, human. To be noted: Table 2; affinity ratio from data of Table 1.
For data set [20] the following is noted: Table 4A; grading of probability from literature reports; cited from earlier work.
On the set-up of data set [21]: key: 1-high; 2-medium; 3-low probability. To be noted: Table 4A; grading of probability from literature reports; cited from earlier work.
Details of data set [22]: key to Weight Gain: 1-high; 2-medium; 3-low probability. To be noted: cited from earlier work; for Weight Gain: Table 4A, grading of probability from literature reports.
Details of data set [23]: key: 1-high; 2-medium; 3-low probability. The conditions noted are these: Table 4A; grading of probability from literature reports; cited from earlier work. The source holds these as a separate data set.
Details of data set [24]: key: 1-high; 2-medium; 3-low probability. The conditions noted are these: Table 4A; grading of probability from literature reports; cited from earlier work. This is another data set of the same source.
For data set [25] the following is noted: rhesus monkeys; cited from earlier work.
In data set [26] the test system is 5HT2A/2C mediated elevations of prolactin levels. To be noted: known from literature; cited from earlier work.

5-HT6 receptor, sequence (P31388 whole entry): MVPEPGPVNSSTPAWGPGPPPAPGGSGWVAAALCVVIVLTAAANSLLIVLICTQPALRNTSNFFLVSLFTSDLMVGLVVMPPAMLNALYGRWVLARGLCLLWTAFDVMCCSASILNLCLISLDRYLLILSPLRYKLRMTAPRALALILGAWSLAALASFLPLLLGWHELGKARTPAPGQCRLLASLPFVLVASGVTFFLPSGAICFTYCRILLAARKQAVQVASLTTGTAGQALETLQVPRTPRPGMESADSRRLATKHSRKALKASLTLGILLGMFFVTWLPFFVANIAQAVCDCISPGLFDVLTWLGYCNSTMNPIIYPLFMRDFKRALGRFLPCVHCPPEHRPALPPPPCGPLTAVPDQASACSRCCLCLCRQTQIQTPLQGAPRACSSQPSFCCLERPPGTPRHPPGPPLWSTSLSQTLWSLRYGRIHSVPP
M2 muscarinic acetylcholine receptor, sequence (P08172 whole entry): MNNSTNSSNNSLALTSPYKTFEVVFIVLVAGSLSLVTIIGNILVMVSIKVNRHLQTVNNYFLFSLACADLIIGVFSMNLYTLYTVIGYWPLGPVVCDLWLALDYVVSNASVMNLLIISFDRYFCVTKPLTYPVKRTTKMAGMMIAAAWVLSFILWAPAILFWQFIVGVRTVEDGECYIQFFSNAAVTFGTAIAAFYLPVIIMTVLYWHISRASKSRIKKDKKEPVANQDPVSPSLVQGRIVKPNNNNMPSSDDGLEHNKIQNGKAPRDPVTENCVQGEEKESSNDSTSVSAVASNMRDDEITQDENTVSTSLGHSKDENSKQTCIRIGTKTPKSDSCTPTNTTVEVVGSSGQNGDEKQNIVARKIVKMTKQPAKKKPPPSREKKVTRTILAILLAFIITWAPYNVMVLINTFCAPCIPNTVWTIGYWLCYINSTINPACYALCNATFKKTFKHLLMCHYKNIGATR
5-HT2C receptor (Rattus norvegicus, UniProt P08909), sequence (P08909 33-460): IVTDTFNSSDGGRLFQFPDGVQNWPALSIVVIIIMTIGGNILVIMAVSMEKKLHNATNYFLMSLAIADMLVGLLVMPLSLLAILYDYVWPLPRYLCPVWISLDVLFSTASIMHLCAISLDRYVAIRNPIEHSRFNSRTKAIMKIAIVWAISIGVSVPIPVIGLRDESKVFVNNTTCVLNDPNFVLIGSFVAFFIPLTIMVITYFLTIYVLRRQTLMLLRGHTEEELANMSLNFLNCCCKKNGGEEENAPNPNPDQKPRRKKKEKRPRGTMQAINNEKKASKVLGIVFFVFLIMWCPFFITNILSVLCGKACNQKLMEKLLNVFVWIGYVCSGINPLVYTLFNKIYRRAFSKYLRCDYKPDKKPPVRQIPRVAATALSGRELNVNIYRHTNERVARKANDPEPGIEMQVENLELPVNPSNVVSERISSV
D2 receptor, sequence (P14416 whole entry): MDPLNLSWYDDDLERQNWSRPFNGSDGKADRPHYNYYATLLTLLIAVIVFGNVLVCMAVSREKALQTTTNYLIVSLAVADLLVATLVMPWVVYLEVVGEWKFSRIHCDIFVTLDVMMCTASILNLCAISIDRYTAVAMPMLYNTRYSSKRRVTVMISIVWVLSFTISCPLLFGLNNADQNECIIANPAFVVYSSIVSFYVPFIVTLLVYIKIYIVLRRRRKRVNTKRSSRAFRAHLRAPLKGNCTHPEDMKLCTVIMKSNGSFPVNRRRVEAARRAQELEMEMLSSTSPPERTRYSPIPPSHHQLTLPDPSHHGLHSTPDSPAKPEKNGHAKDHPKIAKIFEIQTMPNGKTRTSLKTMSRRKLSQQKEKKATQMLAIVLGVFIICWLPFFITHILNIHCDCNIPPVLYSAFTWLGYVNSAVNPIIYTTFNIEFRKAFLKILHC
M1 muscarinic acetylcholine receptor, sequence (P11229 whole entry): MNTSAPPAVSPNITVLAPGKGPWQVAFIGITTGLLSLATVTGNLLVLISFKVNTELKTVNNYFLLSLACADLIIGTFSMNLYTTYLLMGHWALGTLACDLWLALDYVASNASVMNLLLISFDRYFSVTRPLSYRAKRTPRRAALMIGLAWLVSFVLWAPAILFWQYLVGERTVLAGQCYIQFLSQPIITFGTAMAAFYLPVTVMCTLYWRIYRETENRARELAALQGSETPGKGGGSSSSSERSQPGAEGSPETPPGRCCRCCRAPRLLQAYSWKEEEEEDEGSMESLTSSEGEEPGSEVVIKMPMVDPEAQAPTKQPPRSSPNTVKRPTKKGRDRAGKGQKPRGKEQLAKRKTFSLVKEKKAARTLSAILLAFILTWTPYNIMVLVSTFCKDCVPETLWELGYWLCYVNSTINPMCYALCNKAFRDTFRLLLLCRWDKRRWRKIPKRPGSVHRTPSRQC
5-HT7 receptor, sequence (P32305 whole entry): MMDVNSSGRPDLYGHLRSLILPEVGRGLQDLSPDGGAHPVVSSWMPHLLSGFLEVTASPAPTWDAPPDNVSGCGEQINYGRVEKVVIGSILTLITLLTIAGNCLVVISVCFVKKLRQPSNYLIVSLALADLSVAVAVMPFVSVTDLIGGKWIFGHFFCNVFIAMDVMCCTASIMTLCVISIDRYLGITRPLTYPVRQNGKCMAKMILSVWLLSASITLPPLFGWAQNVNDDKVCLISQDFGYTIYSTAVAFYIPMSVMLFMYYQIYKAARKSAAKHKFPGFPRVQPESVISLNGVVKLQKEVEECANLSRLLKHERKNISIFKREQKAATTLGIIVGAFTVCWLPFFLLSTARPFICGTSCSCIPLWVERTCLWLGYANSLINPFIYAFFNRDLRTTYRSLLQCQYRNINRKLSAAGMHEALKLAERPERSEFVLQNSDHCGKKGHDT
M3 muscarinic acetylcholine receptor, sequence (P20309 whole entry): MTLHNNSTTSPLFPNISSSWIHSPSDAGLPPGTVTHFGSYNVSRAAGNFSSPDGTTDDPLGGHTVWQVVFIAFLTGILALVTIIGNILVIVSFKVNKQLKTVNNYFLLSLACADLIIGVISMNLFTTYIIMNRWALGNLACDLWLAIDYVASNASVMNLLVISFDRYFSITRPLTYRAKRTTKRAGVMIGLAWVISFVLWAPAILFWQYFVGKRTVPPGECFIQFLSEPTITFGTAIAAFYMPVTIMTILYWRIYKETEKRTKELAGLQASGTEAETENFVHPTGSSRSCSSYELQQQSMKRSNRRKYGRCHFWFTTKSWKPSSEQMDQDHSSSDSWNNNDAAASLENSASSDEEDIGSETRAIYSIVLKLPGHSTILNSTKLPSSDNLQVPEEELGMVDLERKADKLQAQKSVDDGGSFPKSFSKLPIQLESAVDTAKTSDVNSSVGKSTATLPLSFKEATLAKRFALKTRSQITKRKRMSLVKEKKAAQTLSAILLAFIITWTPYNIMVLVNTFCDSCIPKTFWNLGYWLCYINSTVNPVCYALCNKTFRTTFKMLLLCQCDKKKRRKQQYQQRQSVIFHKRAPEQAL
5-HT2A receptor, sequence (P28223 whole entry): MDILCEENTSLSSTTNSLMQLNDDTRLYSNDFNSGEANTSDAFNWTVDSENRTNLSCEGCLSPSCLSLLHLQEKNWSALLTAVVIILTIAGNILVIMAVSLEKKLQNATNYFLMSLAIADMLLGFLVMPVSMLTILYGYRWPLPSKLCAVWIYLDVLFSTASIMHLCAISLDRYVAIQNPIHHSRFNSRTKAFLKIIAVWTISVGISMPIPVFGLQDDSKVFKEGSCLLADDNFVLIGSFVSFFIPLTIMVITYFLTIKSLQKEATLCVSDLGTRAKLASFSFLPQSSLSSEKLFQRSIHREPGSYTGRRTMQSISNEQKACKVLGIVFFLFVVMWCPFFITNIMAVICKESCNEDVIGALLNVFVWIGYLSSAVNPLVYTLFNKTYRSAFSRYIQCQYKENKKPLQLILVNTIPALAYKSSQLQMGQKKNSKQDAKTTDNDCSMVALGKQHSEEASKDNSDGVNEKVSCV
D1 dopamine receptor, sequence (P18901 whole entry): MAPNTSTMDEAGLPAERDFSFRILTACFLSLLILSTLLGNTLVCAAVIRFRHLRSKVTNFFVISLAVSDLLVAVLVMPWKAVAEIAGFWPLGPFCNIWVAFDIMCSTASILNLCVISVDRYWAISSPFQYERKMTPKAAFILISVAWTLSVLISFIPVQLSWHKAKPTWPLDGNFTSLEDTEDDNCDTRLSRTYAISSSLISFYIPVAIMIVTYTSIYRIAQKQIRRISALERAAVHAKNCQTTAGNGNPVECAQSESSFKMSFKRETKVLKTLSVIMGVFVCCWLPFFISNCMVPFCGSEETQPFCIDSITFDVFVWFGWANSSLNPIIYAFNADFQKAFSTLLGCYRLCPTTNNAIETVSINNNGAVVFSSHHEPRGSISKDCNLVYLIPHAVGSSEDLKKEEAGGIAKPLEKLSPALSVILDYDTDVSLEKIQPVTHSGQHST

For the molecule `O=c1[nH]c2ccccc2n1C1CCN(CCCC(c2ccc(F)cc2)c2ccc(F)cc2)CC1` [Pimozide], the “D4 affinity value (−logKi)” value in data set [1] is recorded as 7.4^12; in [4], 7.5^4. The “5-HT2C affinity value (−logKi)” value in data set [2] is <5^1. In data set [3], the “5-HT6 affinity value (−logKi)” value is recorded as 7.2^2.

In the case of `CNCCO[C@]1(c2ccccc2)C[C@H]2CC[C@]1(C)C2(C)C` [N-Desmethyl-deramciclane, (1R,2S,4R)-(−)-2-phenyl-2-(methylaminoethoxy)-1,7,7-trimethyl-bicyclo[2.2.1]heptane], the “5-HT2C receptor antagonism compared with deramciclane” value in data set [5] was “even more pronounced 5-HT2C receptor antagonism”. Also, the “5-HT2A Affinity” value in [6] is 7. In [7] (Table 3, calculated from known 5-HT2C/5-HT2A/D2 affinities), the “Formula I Affinity Ratio” value was 2.20. For the same molecule, in [8], the “D2 Affinity” value was 7.

Regarding `CN1CCN(C2=Nc3cc(F)ccc3Cc3ccccc32)CC1` [Fluperlapine], in data set [9], the “M4 affinity value (−log KD)” value is on record as 7.9^15. In addition, the “M5 affinity value (−log KD)” value in data set [10] is reported as 7.7^15. The “M1 affinity value (−log KD)” value in data set [11] is listed as 8.1^15. Further, the “5-HT7 affinity value (−logKi)” value in [12] was 8.3^2. In addition, the “5-HT2C/D2 (2C/D2)” value in data set [13] was 1.18. Moreover, in data set [14], the “M2 affinity value (−log KD)” value is 7.1^15. In addition, the 5-HT2A/D2 in data set [15] was 1.25. Also, in data set [7], the “(2C/2A) + (2C/D2)” value turned out to be 2.13. Moreover, in data set [16], the “D1 affinity value (−logKi)” value is recorded as 6.8^8. Besides, in data set [17], the “M3 affinity value (−log KD)” value was 7.4^15. Also, the “5-HT6 affinity value (−logKi)” value in data set [3] is recorded as 7.8^2. The “5-HT2C/5-HT2A (2C/2A)” value in data set [18] is 0.95. Also, the “D4 affinity value (−logKi)” value in data set [4] is given as 6.9^4.

On to `CN1CC2c3ccccc3Oc3ccc(Cl)cc3C2C1` (stereo not shown) [ORG-5222], for which the H1/D2 in data set [19] amounted to 1.02. For the same molecule, the “5-HT2C/D2 (2C/D2)” value in data set [13] was 1.13. In addition, the 5-HT2A/D2 in data set [15] was 1.10. Also, in data set [7], the “(2C/2A) + (2C/D2)” value was determined as 2.15. In addition, the “5-HT2C/5-HT2A (2C/2A)” value in data set [18] is listed as 1.02.

For `OCCOCCN1CCN(C2=Nc3ccccc3Sc3ccccc32)CC1` [Seroquel], the Improvement cognitive deficits in data set [20] is given as 2-3. Moreover, the Extra-pyramidal side effects in data set [21] is 2. Further, the “Weight Gain” value in [22] was 2. For the same molecule, the “weight gain (in words)” value in data set [22] (text b109, literature reports) is on record as “do cause weight gain”. In addition, the Increases prolactin levels in data set [23] is given as 3. For the same molecule, the Improvement negative symptoms in data set [24] is listed as 3.

For the molecule `CC(C)n1cc2c3c(cccc31)[C@H]1C[C@@H](C(=O)NC3CCCCC3)CN(C)[C@@H]1C2` [Amesergide, N-cyclohexyl-1-isopropyl-6-methyl-ergoline-8-carboxamide], in data set [25], the “day of maximum values of parent compounds or metabolites (4-hydroxy and desisopropyl species)” value is 35 days; the “day of minimum values of parent compounds or metabolites” value is 365 days. In addition, the “effect on 5HT2A/2C mediated elevations of prolactin levels induced by D-fenfluramine” value in data set [26] was “block 5HT2A/2C mediated elevations of prolactin levels”.

As for `Cc1nc2n(c(=O)c1CCN1CCC(c3noc4cc(F)ccc34)CC1)CCCC2` [Risperidone], the Improvement cognitive deficits in [20] was 2-3. Besides, in [21], the Extra-pyramidal side effects is 1. In data set [22], the “Weight Gain” value is 2-3. In [23], the Increases prolactin levels is 1. The Improvement negative symptoms in [24] is listed as 3.
